{"source": "patent US20170325451A1", "about": "“Use of Alkyl Gallate for Stimulating the Natural Defenses of Plants” (priority 2014, published 2017)", "key": {"tobacco BY-2 cells": {"test_system": "tobacco BY-2 cells", "assay": "Alkalinization of the extracellular medium of tobacco BY-2 cell cultures", "type": "cell-based", "conditions": "for alkalinization of the extracellular medium: molar concentrations from 2 to 5 mmol·L^−1, BY-2 cultures", "experimental": "The cell cultures are tobacco BY-2 cells maintained in cultures at 24° C., under stirring in darkness.\nEG solutions (molar concentrations from 0.5 mmol·L^−1 to 5 mmol·L^−1), MG (1 mmol·L^−1 and 5 mmol·L^−1), or PG solutions (1 mmol·L^−1 and 5 mmol·L^−1) are added to tobacco BY-2 cell cultures at time T0. The pH is measured continuously (every 10 min) in the extracellular medium for 150 minutes.\nThe cell cultures are tobacco BY-2 cells maintained in cultures at 24° C., under stirring and in darkness.\nTwo GA solutions (0.5 mmol·L^−1 and 5 mmol·L^−1) are added to tobacco BY-2 cell cultures at time T0. The pH is measured continuously (every 10 min) in the extracellular medium for 150 minutes. EG solutions at different molar concentrations (0.5 mmol·L^−1 and 5 mmol·L^−1) are used as controls."}, "tobacco leaf": {"test_system": "tobacco leaf", "assay": "Infiltration of tobacco leaf: chlorosis and synthesis of autofluorescent compounds", "type": "in vivo", "conditions": "4 days after infiltration; for production of autofluorescent compounds around the infiltration sites: solutions 5 mmol·L^−1, infiltrated", "experimental": "The plants are 8 weeks old, in the 12-15 leaf stage, cultured in a greenhouse or growing chamber.\n50 μL of different EG solutions having molar concentrations (0.5 mmol·L^−1 to 5 mmol·L^−1) and of MG and PG solutions having a molar concentration of 5 mmol·L^−1 are infiltrated on the upper side of the tobacco leaf. The negative control is water; the positive control is salicylic acid (SA) at a molar concentration of […].\nThe different plants are photographed 4 days after the infiltration.\nThe negative control is water."}, "[1]": {"test_system": "transcripts coding for pathogenesis-related proteins (PR1, PR2, PR3, PR5) in tobacco leaves", "assay": "Accumulation of PR transcripts in treated tobacco leaves (quantitative real-time PCR)", "type": "in vivo", "experimental": "The markers for the acquired local response (ALR) are tested for in the tobacco leaves that have been treated by the infiltration method (20 infiltration points per leaf/50 μL per infiltration) or by spraying (sufficient quantity to cover the leaf and obtain saturation, or approximately 2 mL per leaf) at a rate of 3 leaves per plant (non-senescent basal leaves). The leaves treated are separated from the plant 4 days after treatment and frozen immediately in liquid nitrogen for grinding and extraction of the total RNA. The RNA is extracted in the presence of CTAB buffer according to the protocol described by Chang et al. (1993) [Chang S, Puryear J, Cairney J (1993) A simple and efficient method for isolation RNA from pine trees. Plant mol Biol rep 11: 113-116]. The total RNA is purified and treated by DNase I (1 U) and RNase inhibitor (40 U) (Euromedex), in order to eliminate any possible contamination of the genomic DNA. The total RNA assay is run on the spectrophotometer (NanoDrop-1000). The integrity of the RNA is checked by agarose gel electrophoresis (1%) by detection of the ribosomal RNA subunits. The complementary DNA is synthesized from 1 μg of total RNA using Euroscript Reverse Transcriptase (Eurogentec). The PCR reactions are carried out with the Mastermix for SYBR GREEN kit (Eurogentec) using the iCycler iQ5 software (Bio-Rad). The specificity of the amplification is verified by melting curve analysis. The gene coding for EF-1α is used as an internal control. The quantification of the transcripts is calculated according to the mathematical model developed by Pfaffl (2001). [Pfaffl (2001) A new mathematical model for relative quantification in real time RT-PCR. Nucl. Acids res 29: 2002-7]. […]\n4 days after the infiltration, the transcripts coding for pathogenesis-related proteins (PR proteins) are measured by quantitative real-time PCR. The total RNA is extracted from the infiltrated tobacco leaves. The cDNA is synthesized, and the transcripts of interest are quantified using specific primers of the genes PR1, PR2 and PR3."}, "[2]": {"conditions": "5 mmol·L^−1, infiltration, 4 days after treatment"}, "[3]": {"conditions": "5 mmol·L^−1, spraying, 4 days after treatment"}, "[4]": {"conditions": "50 mmol·L^−1, infiltration, 4 days after treatment"}, "[5]": {"conditions": "GA solutions 58.8 and 5.88 mmol·L^−1, infiltrated"}}, "data": [{"smiles": "COC(=O)c1cc(O)c(O)c(O)c1", "note": "[MG, methyl gallate]", "values": [{"measurement": "alkalinization of the extracellular medium", "setting": "tobacco BY-2 cells", "result": "induce a rapid alkalinization"}, {"measurement": "production of autofluorescent compounds around the infiltration sites", "setting": "tobacco leaf; UV 312 nm", "result": "induce the same phenomenon of production of autofluorescent compounds"}]}, {"smiles": "CCOC(=O)c1cc(O)c(O)c(O)c1", "note": "[EG, ethyl gallate]", "values": [{"measurement": "alkalinization of the extracellular medium", "setting": "tobacco BY-2 cells", "result": "induce a rapid alkalinization"}, {"measurement": "chlorosis", "setting": "tobacco leaf; EG solutions 0.5 to 5 mmol·L^−1, 50 μL infiltrated on tobacco leaf, natural light", "result": "do not induce chlorosis"}, {"measurement": "production of autofluorescent compounds of the phytoalexin type around the infiltration sites", "setting": "tobacco leaf; EG solutions 0.5 to 5 mmol·L^−1, infiltrated, UV 312 nm", "result": "extensive production of autofluorescent compounds"}, {"measurement": "Relative quantities of transcripts PR1", "setting": "[1]; [2]", "result": "6.7 ± 1.2"}, {"measurement": "Relative quantities of transcripts PR2", "setting": "[1]; [2]", "result": "6.2 ± 1.7"}, {"measurement": "Relative quantities of transcripts PR3", "setting": "[1]; [2]", "result": "5.6 ± 1.3"}, {"measurement": "Relative quantities of transcripts PR1", "setting": "[1]; [3]", "result": "15 ± 0.4"}, {"measurement": "Relative quantities of transcripts PR2", "setting": "[1]; [3]", "result": "32 ± 4.6"}, {"measurement": "Relative quantities of transcripts PR3", "setting": "[1]; [3]", "result": "23 ± 7.1"}, {"measurement": "Relative quantities of transcripts PR5", "setting": "[1]; [3]", "result": "14 ± 2.2"}, {"measurement": "Relative quantities of transcripts PR1", "setting": "[1]; [4]", "result": "3.7 ± 1.3"}, {"measurement": "Relative quantities of transcripts PR2", "setting": "[1]; [4]", "result": "23.4 ± 3.3"}, {"measurement": "Relative quantities of transcripts PR3", "setting": "[1]; [4]", "result": "30.4 ± 5.3"}, {"measurement": "accumulation of transcripts that are markers of the defense reactions: PR1, PR2, PR3, PR5", "setting": "[1]; EG solutions 5 and 50 mmol·L^−1, infiltration or spraying", "result": "induce the accumulation of transcripts"}]}, {"smiles": "CCCOC(=O)c1cc(O)c(O)c(O)c1", "note": "[PG, propyl gallate]", "values": [{"measurement": "alkalinization of the extracellular medium", "setting": "tobacco BY-2 cells", "result": "induce a rapid alkalinization"}, {"measurement": "production of autofluorescent compounds around the infiltration sites", "setting": "tobacco leaf; UV 312 nm", "result": "induce the same phenomenon of production of autofluorescent compounds"}]}, {"smiles": "O=C(O)c1cc(O)c(O)c(O)c1", "note": "[GA, gallic acid, reference compound]", "values": [{"measurement": "effect on the pH of the culture medium", "setting": "tobacco BY-2 cells; GA solutions 0.5 and 5 mmol·L^−1, 150 minutes", "result": "no effect on the pH"}, {"measurement": "autofluorescent zones around the infiltration zones", "setting": "tobacco leaf; [5]", "result": "not accompanied by autofluorescent zones"}, {"measurement": "chlorosis", "setting": "tobacco leaf; [5]", "result": "induce strong chlorosis"}, {"measurement": "accumulation of transcripts (PR1, PR2, PR3) compared to water", "setting": "[1]; GA solution 5.88 mmol·L^−1, infiltration, 4 days after infiltration", "result": "does not induce a significant accumulation of transcripts"}]}]}
